1 molecule from PMC5218480 (PLoS ONE, 2017) can be followed below.

This assay relates to MV-4-11 cells. Description: Gene expression microarray analysis (Affymetrix PrimeView) and GSEA. It is filed as cell-based, human. On the set-up: RFU PODN (11730768_x_at) / Fold change /veh PODN (11730768_x_at) / RFU LINC00158 (11744669_a_at) / Fold change /veh LINC00158 (11744669_a_at) / RFU DUSP10 (11751237_a_at) / Fold change /veh DUSP10 (11751237_a_at) / RFU ID3 (11757404_x_at) / Fold change /veh ID3 (11757404_x_at) / RFU PLEKHG5 (11737974_s_at) / Fold change /veh PLEKHG5 (11737974_s_at) / RFU LRRC4B (11730491_at) / Fold change /veh LRRC4B (11730491_at) / RFU GIMAP4 (11747438_a_at) / Fold change /veh GIMAP4 (11747438_a_at) / RFU KRT8 (11758183_x_at) / Fold change /veh KRT8 (11758183_x_at) / RFU CNN1 (11734310_a_at) / Fold change /veh CNN1 (11734310_a_at) / RFU VPS37D (11726825_at) / Fold change /veh VPS37D (11726825_at) / RFU C10orf10 (11716522_x_at) / Fold change /veh C10orf10 (11716522_x_at) / RFU KIR2DL2 /// KIR2DL4 /// KIR2DL5A /// KIR2DL5B /// KIR2DS1 /// KIR2DS2 /// KIR2DS3 /// KIR2DS4 /// KIR3DL3 /// KIR3DL3 /// KIR3DS1 (11738374_at) / Fold change /veh KIR2DL2 /// KIR2DL4 /// KIR2DL5A /// KIR2DL5B /// KIR2DS1 /// KIR2DS2 /// KIR2DS3 /// KIR2DS4 /// KIR3DL3 /// KIR3DL3 /// KIR3DS1 (11738374_at) / RFU C1QL1 (11718748_at) / Fold change /veh C1QL1 (11718748_at) / RFU TMPRSS4 (11747572_a_at) / Fold change /veh TMPRSS4 (11747572_a_at) / RFU HAMP (11756126_x_at) / Fold change /veh HAMP (11756126_x_at) / RFU RNFT2 (11725882_a_at) / Fold change /veh RNFT2 (11725882_a_at) / RFU NR4A2 (11747474_a_at) / Fold change /veh NR4A2 (11747474_a_at) / RFU ABCC12 (11746883_a_at) / Fold change /veh ABCC12 (11746883_a_at) / RFU TMEM136 (11760407_x_at) / Fold change /veh TMEM136 (11760407_x_at) / RFU CLDN22 /// WWC2 (11732394_at) / Fold change /veh CLDN22 /// WWC2 (11732394_at) / RFU HLA-DPB1 (11760878_x_at) / Fold change /veh HLA-DPB1 (11760878_x_at) / RFU SPINT1 (11716480_a_at) / Fold change /veh SPINT1 (11716480_a_at) / RFU GAP43 (11754022_s_at) / Fold change /veh GAP43 (11754022_s_at) / RFU A4GNT (11735810_at) / Fold change /veh A4GNT (11735810_at) / RFU PRB3 (11715151_x_at) / Fold change /veh PRB3 (11715151_x_at) / RFU TUBB4B (11761932_at) / Fold change /veh TUBB4B (11761932_at) / RFU CAPN14 (11732068_a_at) / Fold change /veh CAPN14 (11732068_a_at) / RFU TMCC2 (11721928_a_at) / Fold change /veh TMCC2 (11721928_a_at) / RFU IRGQ (11745062_a_at) / Fold change /veh IRGQ (11745062_a_at) / RFU FAM174B (11720279_a_at) / Fold change /veh FAM174B (11720279_a_at) / RFU TMPRSS4 (11748680_a_at) / Fold change /veh TMPRSS4 (11748680_a_at) / RFU FAM212B (11763350_a_at) / Fold change /veh FAM212B (11763350_a_at) / RFU PLEKHG5 (11743358_a_at) / Fold change /veh PLEKHG5 (11743358_a_at) / RFU ZSCAN30 (11745921_a_at) / Fold change /veh ZSCAN30 (11745921_a_at) / RFU CMKLR1 (11741424_a_at) / Fold change /veh CMKLR1 (11741424_a_at) / RFU LOC101060620 /// MAPK8IP1 (11723275_at) / Fold change /veh LOC101060620 /// MAPK8IP1 (11723275_at) / RFU SPTSSB (11747773_x_at) / Fold change /veh SPTSSB (11747773_x_at) / RFU PRSS12 (11739890_at) / Fold change /veh PRSS12 (11739890_at) / RFU BIN1 (11741810_x_at) / Fold change /veh BIN1 (11741810_x_at) / RFU WNT11 (11732464_a_at) / Fold change /veh WNT11 (11732464_a_at) / RFU C10orf10 (11716521_a_at) / Fold change /veh C10orf10 (11716521_a_at) / RFU C5orf56 (11738089_at) / Fold change /veh C5orf56 (11738089_at) / RFU CYB561 (11721691_x_at) / Fold change /veh CYB561 (11721691_x_at) / RFU ANKRD19P (11752326_a_at) / Fold change /veh ANKRD19P (11752326_a_at) / RFU OR2T12 /// OR2T33 /// OR2T8 (11738714_s_at) / Fold change /veh OR2T12 /// OR2T33 /// OR2T8 (11738714_s_at) / RFU VCAN (11748164_a_at) / Fold change /veh VCAN (11748164_a_at) / RFU JSRP1 (11732532_at) / Fold change /veh JSRP1 (11732532_at) / RFU KRTAP10-11 (11738290_x_at) / Fold change /veh KRTAP10-11 (11738290_x_at) / RFU MYO3A (11730013_a_at) / Fold change /veh MYO3A (11730013_a_at) / RFU EBF3 (11725865_a_at) / Fold change /veh EBF3 (11725865_a_at) / RFU CAMK2N1 (11719241_x_at) / Fold change /veh CAMK2N1 (11719241_x_at) / RFU C5orf56 (11738088_a_at) / Fold change /veh C5orf56 (11738088_a_at) / RFU OLFML3 (11715873_a_at) / Fold change /veh OLFML3 (11715873_a_at) / RFU LOC100653217 /// NTM (11731650_a_at) / Fold change /veh LOC100653217 /// NTM (11731650_a_at) / RFU MAPK11 (11762145_a_at) / Fold change /veh MAPK11 (11762145_a_at) / RFU FIZ1 (11724087_x_at) / Fold change /veh FIZ1 (11724087_x_at) / RFU OASL (11726364_x_at) / Fold change /veh OASL (11726364_x_at) / RFU SOX15 (11748057_x_at) / Fold change /veh SOX15 (11748057_x_at) / RFU CD79A (11719716_a_at) / Fold change /veh CD79A (11719716_a_at) / RFU HIST1H1D (11736915_at) / Fold change /veh HIST1H1D (11736915_at) / RFU CASKIN2 (11723855_a_at) / Fold change /veh CASKIN2 (11723855_a_at) / RFU LOC730098 (11760151_x_at) / Fold change /veh LOC730098 (11760151_x_at) / RFU OR4N2 (11742367_at) / Fold change /veh OR4N2 (11742367_at) / RFU PRRT2 (11749266_a_at) / Fold change /veh PRRT2 (11749266_a_at) / RFU SNX32 (11753110_a_at) / Fold change /veh SNX32 (11753110_a_at) / RFU CDHR5 (11726645_a_at) / Fold change /veh CDHR5 (11726645_a_at) / RFU RCAN1 (11760418_a_at) / Fold change /veh RCAN1 (11760418_a_at) / RFU FAM167A (11723789_a_at) / Fold change /veh FAM167A (11723789_a_at) / RFU FAM26E (11764081_at) / Fold change /veh FAM26E (11764081_at) / RFU ISYNA1 (11749810_s_at) / Fold change /veh ISYNA1 (11749810_s_at) / RFU ACY1 (11761880_at) / Fold change /veh ACY1 (11761880_at) / RFU 11764098_at / Fold change /veh 11764098_at / RFU SAMD14 (11745864_x_at) / Fold change /veh SAMD14 (11745864_x_at) / RFU NPB (11741838_a_at) / Fold change /veh NPB (11741838_a_at) / RFU TMPRSS6 (11731388_a_at) / Fold change /veh TMPRSS6 (11731388_a_at) / RFU KRTAP10-2 (11738614_at) / Fold change /veh KRTAP10-2 (11738614_at) / RFU ARHGAP8 /// PRR5-ARHGAP8 (11727945_x_at) / Fold change /veh ARHGAP8 /// PRR5-ARHGAP8 (11727945_x_at) / RFU KRTAP5-7 /// NADSYN1 (11734609_at) / Fold change /veh KRTAP5-7 /// NADSYN1 (11734609_at) / RFU RASL12 (11751679_a_at) / Fold change /veh RASL12 (11751679_a_at) / RFU CDKN2B (11736163_a_at) / Fold change /veh CDKN2B (11736163_a_at) / RFU PRF1 (11729649_at) / Fold change /veh PRF1 (11729649_at) / RFU, ZNF638 /// ZNF638-IT1 / Fold change vs veh, ZNF638 /// ZNF638-IT1 / RFU, PANK3 / Fold change vs veh, PANK3 / RFU, SH3YL1 / Fold change vs veh, SH3YL1 / RFU, ZEB2 / Fold change vs veh, ZEB2 / RFU, NRIP1 / Fold change vs veh, NRIP1 / RFU, PTTG1IP / Fold change vs veh, PTTG1IP / RFU, CAPN2 / Fold change vs veh, CAPN2 / RFU, MED14 / Fold change vs veh, MED14 / RFU, SNORA58 / Fold change vs veh, SNORA58 / RFU, C1orf63 / Fold change vs veh, C1orf63 / RFU, LRRFIP1 / Fold change vs veh, LRRFIP1 / RFU, NDUFAF7 / Fold change vs veh, NDUFAF7 / RFU, SLC12A2 / Fold change vs veh, SLC12A2 / RFU, IBTK / Fold change vs veh, IBTK / RFU, ESF1 / Fold change vs veh, ESF1 / Fold change vs veh, TMEM50B / RFU, TAOK1 / Fold change vs veh, TAOK1 / RFU, ACBD3 / Fold change vs veh, ACBD3 / RFU, TMA16 / Fold change vs veh, TMA16 / RFU, RWDD3 / Fold change vs veh, RWDD3 / RFU, BCAT1 / Fold change vs veh, BCAT1 / RFU, EDEM3 / Fold change vs veh, EDEM3 / RFU, TMEM33 / Fold change vs veh, TMEM33 / RFU, WDR75 / Fold change vs veh, WDR75 / RFU, AHCTF1 / Fold change vs veh, AHCTF1 / RFU, TFRC / Fold change vs veh, TFRC / RFU, ZDHHC17 / Fold change vs veh, ZDHHC17 / RFU, NOM1 / Fold change vs veh, NOM1 / RFU, ARL8B / Fold change vs veh, ARL8B / RFU, ZBTB11 / Fold change vs veh, ZBTB11 / RFU, TAMM41 / Fold change vs veh, TAMM41 / RFU, KIAA1704 /// LOC100996395 / Fold change vs veh, KIAA1704 /// LOC100996395 / RFU, ING1 / Fold change vs veh, ING1 / RFU, TRMT61B / Fold change vs veh, TRMT61B / RFU, FUBP3 / Fold change vs veh, FUBP3 / RFU, TP53 / Fold change vs veh, TP53 / RFU, TNKS2 / Fold change vs veh, TNKS2 / RFU, ZFP14 / Fold change vs veh, ZFP14 / RFU, ACTR2 / Fold change vs veh, ACTR2 / RFU, PPP3R1 / Fold change vs veh, PPP3R1 / RFU, PIK3R1 / Fold change vs veh, PIK3R1 / RFU, HNRNPA1 / Fold change vs veh, HNRNPA1 / RFU, RNF170 / Fold change vs veh, RNF170 / RFU, ZNF28 / Fold change vs veh, ZNF28 / RFU, RNGTT / Fold change vs veh, RNGTT / RFU, OGT / Fold change vs veh, OGT / RFU, BRD1 / Fold change vs veh, BRD1 / RFU, MARS / Fold change vs veh, MARS / RFU, ZNF655 / Fold change vs veh, ZNF655 / RFU, FAHD1 / Fold change vs veh, FAHD1 / RFU, BDP1 / Fold change vs veh, BDP1 / RFU, LRRCC1 / Fold change vs veh, LRRCC1 / RFU, ARID1A / Fold change vs veh, ARID1A / RFU, ZNF146 / Fold change vs veh, ZNF146 / RFU, ZNF330 / Fold change vs veh, ZNF330 / RFU, GPN3 / Fold change vs veh, GPN3 / RFU, C9orf123 / Fold change vs veh, C9orf123 / RFU, N4BP2L2 / Fold change vs veh, N4BP2L2 / RFU, ARFIP1 / Fold change vs veh, ARFIP1 / RFU, FAM179B / Fold change vs veh, FAM179B / RFU, BCL10 / Fold change vs veh, BCL10 / RFU, UHRF1BP1L / Fold change vs veh, UHRF1BP1L / RFU, BET1 / Fold change vs veh, BET1 / RFU, CNOT2 / Fold change vs veh, CNOT2 / RFU, ZNF268 / Fold change vs veh, ZNF268 / Fold change vs veh, ZNF507 / RFU, DGCR2 / Fold change vs veh, DGCR2 / RFU, WDSUB1 / Fold change vs veh, WDSUB1 / Fold change vs veh, HSP90B1 /// MIR3652 / RFU, ADSS / Fold change vs veh, ADSS / RFU, GK / Fold change vs veh, GK / RFU, ZNF148 / Fold change vs veh, ZNF148 / RFU, TAF9 / Fold change vs veh, TAF9 / RFU, SLC1A5 / Fold change vs veh, SLC1A5 / RFU, SLMO2 / Fold change vs veh, SLMO2 / RFU, ABCC4 / Fold change vs veh, ABCC4 / RFU, LOC101060439 /// RAP1B / Fold change vs veh, LOC101060439 /// RAP1B / RFU, RFX7 / Fold change vs veh, RFX7 / RFU, GTPBP10 / Fold change vs veh, GTPBP10 / RFU, CNEP1R1 / Fold change vs veh, CNEP1R1 / RFU, BIVM-ERCC5 /// ERCC5 / Fold change vs veh, BIVM-ERCC5 /// ERCC5 / RFU, ILF3 / Fold change vs veh, ILF3 / RFU 11762660_at / Fold change /veh 11762660_at / RFU VCAN (11757783_s_at) / Fold change /veh VCAN (11757783_s_at) / RFU DDX43 (11728927_at) / Fold change /veh DDX43 (11728927_at) / RFU KRT8 (11758188_x_at) / Fold change /veh KRT8 (11758188_x_at) / RFU NKD1 (11759106_at) / Fold change /veh NKD1 (11759106_at) / RFU SRD5A1 (11742802_a_at) / Fold change /veh SRD5A1 (11742802_a_at) / RFU TPSAB1 /// TPSB2 (11721975_s_at) / Fold change /veh TPSAB1 /// TPSB2 (11721975_s_at) / RFU GSTM3 (11746129_a_at) / Fold change /veh GSTM3 (11746129_a_at) / RFU IL23R (11737362_x_at) / Fold change /veh IL23R (11737362_x_at) / RFU TMEM51 (11727254_a_at) / Fold change /veh TMEM51 (11727254_a_at) / RFU PIWIL2 (11732686_x_at) / Fold change /veh PIWIL2 (11732686_x_at) / RFU ORM1 (11744905_x_at) / Fold change /veh ORM1 (11744905_x_at) / RFU CCDC152 (11743942_at) / Fold change /veh CCDC152 (11743942_at) / RFU ECM1 (11717891_a_at) / Fold change /veh ECM1 (11717891_a_at) / RFU IL23R (11748794_a_at) / Fold change /veh IL23R (11748794_a_at) / RFU TNFAIP8L3 (11732012_x_at) / Fold change /veh TNFAIP8L3 (11732012_x_at) / RFU MBOAT4 (11741988_at) / Fold change /veh MBOAT4 (11741988_at) / RFU 11764193_at / Fold change /veh 11764193_at / RFU TMEM53 (11763286_at) / Fold change /veh TMEM53 (11763286_at) / RFU MAGEB2 (11727129_at) / Fold change /veh MAGEB2 (11727129_at) / RFU TMEM200A (11744735_a_at) / Fold change /veh TMEM200A (11744735_a_at) / RFU CCDC152 (11751479_a_at) / Fold change /veh CCDC152 (11751479_a_at) / RFU FAM211A (11726209_a_at) / Fold change /veh FAM211A (11726209_a_at) / RFU RGS16 (11746705_a_at) / Fold change /veh RGS16 (11746705_a_at) / RFU VCAN (11755009_s_at) / Fold change /veh VCAN (11755009_s_at) / RFU RHOB (11743442_s_at) / Fold change /veh RHOB (11743442_s_at) / RFU RGS16 (11720943_a_at) / Fold change /veh RGS16 (11720943_a_at) / RFU RGS16 (11720944_at) / Fold change /veh RGS16 (11720944_at) / RFU, VPS4B / Fold change vs veh, VPS4B / RFU, CREB1 / Fold change vs veh, CREB1 / RFU, DNAJC13 / Fold change vs veh, DNAJC13 / RFU, GNAQ / Fold change vs veh, GNAQ / RFU, CDK5R1 / Fold change vs veh, CDK5R1 / RFU, ZRANB3 / Fold change vs veh, ZRANB3 / RFU, CUL4A / Fold change vs veh, CUL4A / RFU, CCNY / Fold change vs veh, CCNY / RFU, UFL1 / Fold change vs veh, UFL1 / RFU, COG3 / Fold change vs veh, COG3 / RFU, DIAPH2 / Fold change vs veh, DIAPH2 / RFU, SKA2 / Fold change vs veh, SKA2 / RFU, AFF3 / Fold change vs veh, AFF3 / RFU, LMF1 / Fold change vs veh, LMF1 / RFU, IPO11 / Fold change vs veh, IPO11 / RFU, DFFB / Fold change vs veh, DFFB / RFU, FOXP1 / Fold change vs veh, FOXP1 / RFU, CARD8 / Fold change vs veh, CARD8 / RFU, STRN3 / Fold change vs veh, STRN3 / RFU, ADK / Fold change vs veh, ADK / RFU, RASSF2 / Fold change vs veh, RASSF2 / RFU, WIPF1 / Fold change vs veh, WIPF1 / RFU, LARP1B / Fold change vs veh, LARP1B / RFU, RASA1 / Fold change vs veh, RASA1 / RFU, RB1 / Fold change vs veh, RB1 / RFU, PPFIA1 / Fold change vs veh, PPFIA1 / RFU, MAT2A / Fold change vs veh, MAT2A / RFU, CCT5 / Fold change vs veh, CCT5 / RFU, WDR92 / Fold change vs veh, WDR92 / RFU, CUX1 / Fold change vs veh, CUX1 / RFU, TTC7A / Fold change vs veh, TTC7A / RFU, TMEM135 / Fold change vs veh, TMEM135 / RFU, DEPTOR / Fold change vs veh, DEPTOR / RFU, CPM / Fold change vs veh, CPM / RFU, DNAJB6 / Fold change vs veh, DNAJB6 / RFU, CACNA2D3 / Fold change vs veh, CACNA2D3 / RFU, DTX4 / Fold change vs veh, DTX4 / RFU, TFCP2 / Fold change vs veh, TFCP2 / RFU, GMCL1 /// GMCL1P1 / Fold change vs veh, GMCL1 /// GMCL1P1 / RFU, AEBP2 / Fold change vs veh, AEBP2 / RFU, SNHG1 /// SNORD22 /// SNORD25 /// SNORD26 /// SNORD27 /// SNORD28 /// SNORD29 /// SNORD31 / Fold change vs veh, SNHG1 /// SNORD22 /// SNORD25 /// SNORD26 /// SNORD27 /// SNORD28 /// SNORD29 /// SNORD31 / Fold change (Aza/veh), C12orf56 (ProbeSet 11735607_a_at) / Fold change (ACY-1035/veh), C12orf56 (ProbeSet 11735607_a_at) / Fold change (Aza/veh), FGFR1OP (ProbeSet 11751329_s_at) / Fold change (ACY-1035/veh), FGFR1OP (ProbeSet 11751329_s_at) / Fold change (Aza/veh), VPS36 (ProbeSet 11739960_a_at) / Fold change (ACY-1035/veh), VPS36 (ProbeSet 11739960_a_at) / RFU SYPL1 (11715823_x_at) / Fold change /veh SYPL1 (11715823_x_at) / RFU IGFBP7 (11715501_s_at) / Fold change /veh IGFBP7 (11715501_s_at) / RFU REEP3 (11722064_at) / Fold change /veh REEP3 (11722064_at) / RFU IGLL1 (11728026_x_at) / Fold change /veh IGLL1 (11728026_x_at): dose or concentration left out as unconfirmed. Particulars: ProbeSet 11749551_a_at; LIST B.

With `Nc1ncn([C@@H]2O[C@H](CO)[C@@H](O)[C@H]2O)c(=O)n1` [azacitidine], the “RFU, RNGTT” value is given as 56.67 RFU.
